Drawing on patent US20240270786A1, “STEROID COMPOUNDS” (Epirium Bio Inc., priority 2022, published 2024), this text covers ATP hydrolysis and ATP synthesis for two molecules.

Each structure is given as a SMILES string.

Experiment [1] relates to mitochondrial ATP synthase. In words: ATP hydrolysis (acidification, Seahorse XF96) in fresh heart mitochondria. To be noted: fresh heart mitochondria (FIG. 1, FIG. 2). Type of experiment: biochemical, mouse. From the text: (§1) To assess whether the fraction of synthetic and reverse hydrolytic activities of mitochondrial ATP synthase can be measured in the same preparation, a protocol was developed to monitor changes in oxygen consumption and proton release in response to changes in mitochondrial ATP synthase activity. The proton released and the concomitant changes in the pH can be monitored using the ECAR (extracellular acidification) channel in the Agilent Seahorse XF analyzer using isolated mitochondria, to ensure that the changes in pH cannot be attributed to glycolysis or other contributors to ECAR.
Mice were anesthetized with isoflurane followed by a cervical dislocation, and the heart was immediately removed and placed in ice cold relaxation buffer (5 mM sodium pyrophosphate, 100 mM KCl, 5 mM EGTA, 5 mM HEPES; pH 7.4). The heart was squeezed with tweezers to remove blood, minced with scissors, and then placed in a glass-glass Dounce homogenizer with 3 mL of HES homogenization buffer (250 mM sucrose, 5 mM HEPES, 1 mM EDTA; pH to 7.2, adjusted with KOH). The heart tissue was homogenized first with the loose pestle and followed by the tight pestle. The homogenized tissue was placed in a pre-chilled 15 mL conical tube and centrifuged at 900×g (4° C.) for 10 minutes (min). The supernatant was removed, placed in a new tube and centrifuged again at 900×g for 10 min. The supernatant was then transferred to 2 mL microcentrifuge tubes and centrifuged at 10,000×g (4° C.) for 10 min. The mitochondrial pellets were re-suspended in ice cold HES buffer and mitochondrial protein was measured with a BCA assay (Pierce). The concentrated mitochondrial pellet was stored on ice. […]
ATP hydrolysis capacity or state 4 acidification was measured using Seahorse XF96 as described in Divakaruni et al. (2018) Anal Biochem 552:60-65 and Acin-Perez et al. (2021) Life 11(9):949, in MAS (70 mM Sucrose, 220 mM Mannitol, 5 mM KH2PO4, 5 mM MgCl2, 1 mM EGTA, 2 mM HEPES; pH 7.2). […]

The test system of experiment [2] is mitochondrial ATP synthase. In words: ATP synthesis (oxygen consumption, Seahorse XF96) in fresh heart mitochondria. The experiment is classed as biochemical, mouse. Particulars: Complex I or Complex II substrates (FIG. 1, FIG. 2).
Description: as §1
Mice were anesthetized with isoflurane followed by a cervical dislocation, and the heart was immediately removed and placed in ice cold relaxation buffer (5 mM sodium pyrophosphate, 100 mM KCl, 5 mM EGTA, 5 mM HEPES; pH 7.4). […] The mitochondrial pellets were re-suspended in ice cold HES buffer and mitochondrial protein was measured with a BCA assay (Pierce). […]
Oxygen consumption was measured in isolated fresh intact mitochondria from mouse heart, as oxygen consumption is linked to maximal ATP synthesis and proton release when mitochondria are respiring either in the presence of substrates and ADP (ATP synthesizing mitochondria or state 3) or in the presence of substrates but not ADP (state 4). […]

As to `CNC(=O)[C@H]1CCC2C3CC=C4N(C)C(=O)CC[C@]4(C)C3[C@@H](O)C[C@@]21C` (stereo partly drawn) [Compound 40, (4aR,5S,6aS)-5-hydroxy-N,1,4a,6a-tetramethyl-2-oxo-2,3,4,4a,4b,5,6,6a,7,8,9,9a,9b,10-tetradecahydro-1H-indeno[5,4-f] quinoline-7-carboxamide], the ATP hydrolysis entry in experiment [1] was “only mild changes in hydrolysis”.

As for `CN1C(=O)CC[C@@]2(C)C1=CCC1C2[C@@H](O)C[C@@]2(C)C1CC[C@@H]2NC(=O)C1CC1` (stereo partly drawn) [Compound 26, N-((4aR,5S,6aS,7S)-5-hydroxy-1,4a,6a-trimethyl-2-oxo-2,3,4,4a,4b,5,6,6a,7,8,9,9a,9b,10-tetradecahydro-1H-indeno[5,4-f]quinolin-7-yl)cyclopropanecarboxamide], the ATP hydrolysis result in experiment [1] is recorded as “only mild changes in hydrolysis”. Besides, in experiment [2], the ATP synthesis entry is “decreased ATP synthesis at the highest concentration”.
